Legend:
Assay type in all cases: cell-based, human
[1] = system: APG7; test: Western blotting, protein expression in oleic acid induced HepG2 cells
Description: (§1) The culture, model establishment and drug treatment manners of the cells were operated according to 1.2.3. After completion, cells were collected, cytoplasmic proteins were extracted, and protein electrophoresis was conducted after quantification. Particularly the following methods were used: When the cell confluence reached 70%, 0.5 mM oleic acid was added to treat the cells for 24 h. After completion, the cells were collected and the cytoplasmic protein was extracted, and the protein electrophoresis was conducted after quantification. The electrophoresis method was as follows: After cell culture was completed, the culture plate was taken out, the culture medium in the well was discarded, the pellet was washed twice with PBS, placed onto an ice bath, and added with 100 μL of a protein lysis buffer (RIPA) (PMSF was added into the cell lysis buffer at 1:1000 within few minutes before the use, with a final concentration of 1 mM) per well. After the cells were lysed for about […], the cells were scraped off with a cell scraper, pipetted into a 1.5 mL centrifuge tube (which could be crushed with an ultrasonic cell disruptor for 3-5 times), then centrifuged at 12,000 rpm under 4° C. for 15-20 mM. The supernatant was taken and transferred into a new centrifuge tube for protein quantification or storage at −80° C. Theprotein content was determined by a BCA method, and the operation method was carried out according to the instructions of the kit. After the protein concentration was measured, the protein sample was added with a 5× loading buffer and mixed uniformly at 1:4, then subjected to water bath at 100° C. for […] (entangling with a sealing film to prevent bouncing off), and stored at 4° C. The specific operation method of protein electrophoresis was in accordance with the relevant references. Since each of the molecular weight of the target proteins was within 10-80 KDa except for FASN (the separation gel was prepared according to the following table), the separation gel concentration was selected to be 10%, and the concentration of the FASN protein separation gel was selected to be 6%. A spacer gel was formulated according to the following table, and sample loading was conducted. After completion, electrophoresis should be conducted as soon as possible, where concentration was conducted at 80 v for 30 min, and then electrophoresis was conducted at 120 v until the front edge ran to the lower edge of the separation gel, and the electrophoresis was stopped. 3. Transferring The PVDF membrane was immersed in methanol for 1 min in advance and then soaked with a 1× transfer solution for 10 min. the gel was removed, the excess gel was cut off from top and bottom and left and right, and then the gel was assembled in the order of filter paper-gel-membrane-filter paper from a blackboard to a whiteboard, the bubbles were removed from therebetween, and the assembly was clamped by a clip, and placed in a transfer slot with the black side to black side, and white side to white side. After the completion of the transfer, the PVDF membrane was blocked with a TB ST room-temperature shaker containing 5% skim milk powder for 1 hour. The primary antibody was diluted with TBST containing 5% BSA or 5% skim milk powder (see the antibody instructions for specific dilution multiple). After the end of blocking, the PVDF membrane was incubated with the well-diluted primary antibody overnight at 4° C.

[2] = system: APGSL; test: as above; conditions: high dose group
Description: as §1

[3] = system: high-fat HepG2 cells; test: Triglyceride (TG) content of the cells, TG kit; conditions: for level of TG in a high fat cell: FIGS. 4B, 5B; for level of TG, compared with control group and low dose group: medium and high doses
Description: (§2) 2. The culture, model establishment and experimental steps of the cells were operated according to the above steps. The anthocyanin compound mother liquor was diluted to 0, 0.1, 1, 10, 50, and 100 μM to treat the high-fat HepG2 cells, respectively.
(§3) 3. The culture solution was pipetted off, gently washed with PBS for 3 times, and added with trypsin to digest the cells for 1 min The cell suspension was pipetted into a 1.5 mL sterile EP tube, centrifuged at 1000 rpm for 10 minutes, the supernatant was discarded, the pellet was added with an appropriate amount of PBS, ultrasonically crushed under the condition of an ice-water bath, and the prepared homogenate was not centrifuged and was ready for determination.
The intracellular triglyceride content was determined according to the operating instructions of a triglyceride (TG) kit. The protein content in the cells was determined by a BCA protein concentration kit, and the triglyceride content in the cells was calibrated with the protein content.

[4] = system: high-fat HepG2 cells; test: Total cholesterol (TC) content in the cells, TC kit; conditions: for level of TC in a high fat cell: FIGS. 4A, 5A; for level of TC, compared with control group and low dose group: medium and high doses
Description: as §2, §3
The total cholesterol (TC) content in the cells was determined according to the operating instructions of a TC kit. The protein content in the cells was determined by a BCA protein concentration kit, and the total cholesterol content in the cells was calibrated with the protein content.

| Compound | protein expression of APG7 ([1]; high dose group) | protein expression of APG7 ([1]; low doses) | protein expression of APGSL [2] | level of TG in a high fat cell [3] | level of TG, compared with control group and low dose group [3] | level of TC in a high fat cell [4] | level of TC, compared with control group and low dose group [4] |
| --- | --- | --- | --- | --- | --- | --- | --- |
| COc1cc(-c2[o+]c3cc(O)cc(O)c3cc2O[C@@H]2O[C@H](CO)[C@@H](O)[C@H](O)[C@H]2O)cc(OC)c1O [malvidin-3-O-β-D glucoside] | inhibition trend | significant effect | inhibition trend | reduce | very significant reduction | reduce | very significant reduction |
| COc1cc(-c2[o+]c3cc(O)cc(O)c3cc2O[C@@H]2O[C@H](CO)[C@@H](O)[C@H](O)[C@H]2O)cc(O)c1O [petunidin-3-O-β-D glucoside] | inhibition trend | significant effect | inhibition trend | reduce | very significant reduction | reduce | very significant reduction |
